The record followed here is patent US5843999A, “2-phenylazulene derivatives and a manufacturing method of these compounds” (Kotobuki Seiyaku Co., Ltd., priority 1996, dated 1998).

One assay has as its target COX-1 (Homo sapiens, UniProt P23219). Briefly: Inhibitory activity on COX-1 (PGE2 production from arachidonic acid, PGE2 ELISA; Needleman method). It counts as biochemical. The conditions noted are these: 1 mM arachidonic acid, 1 μM hematin, pH 8.0, 37° C., 10 min. How it is done: (§1) Pharmacological experiment are as follows. Inhibitory activity of compounds on COX-1 and COX-2 were assayed according to the method of Needleman (J. Biol. Chem., 254, 9772, 1979). One unit of COX-1 or COX-2 enzyme, suspended with Tris-HCl buffer (pH 8.0, 500 μl) containing 1 μM hematin as co-factor, was incubated with compound and 1 mM arachidonic acid at 37° C. for 10 min. The reaction was stopped with 50 mM indomethacin (50 μl), and amounts of PGE2 in the reaction mixture was assayed using PGE2 ELISA system.

In another assay the target is T1, COX-2 (Homo sapiens, UniProt P35354).
T1 sequence (P35354 18-604): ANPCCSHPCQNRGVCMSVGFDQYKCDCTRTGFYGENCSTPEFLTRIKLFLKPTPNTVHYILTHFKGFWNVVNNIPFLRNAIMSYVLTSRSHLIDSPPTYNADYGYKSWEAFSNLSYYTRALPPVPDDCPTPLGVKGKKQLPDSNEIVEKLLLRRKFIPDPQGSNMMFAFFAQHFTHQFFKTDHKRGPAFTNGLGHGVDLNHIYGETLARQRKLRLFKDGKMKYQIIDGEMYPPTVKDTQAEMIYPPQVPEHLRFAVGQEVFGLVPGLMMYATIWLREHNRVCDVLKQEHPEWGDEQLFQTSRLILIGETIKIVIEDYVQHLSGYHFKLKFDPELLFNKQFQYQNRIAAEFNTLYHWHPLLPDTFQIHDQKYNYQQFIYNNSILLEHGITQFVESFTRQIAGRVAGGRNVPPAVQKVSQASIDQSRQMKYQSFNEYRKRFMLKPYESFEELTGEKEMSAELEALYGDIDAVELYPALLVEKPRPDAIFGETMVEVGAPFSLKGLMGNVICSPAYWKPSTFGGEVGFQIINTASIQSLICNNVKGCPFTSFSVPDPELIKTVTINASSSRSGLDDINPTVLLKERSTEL
The assay is described as follows: Inhibitory activity on COX-2 (PGE2 production from arachidonic acid, PGE2 ELISA; Needleman method). It counts as biochemical. To be noted: 1 mM arachidonic acid, 1 μM hematin, pH 8.0, 37° C., 10 min. Here is the method:
as §1

Sequence of COX-1 (P23219 24-599): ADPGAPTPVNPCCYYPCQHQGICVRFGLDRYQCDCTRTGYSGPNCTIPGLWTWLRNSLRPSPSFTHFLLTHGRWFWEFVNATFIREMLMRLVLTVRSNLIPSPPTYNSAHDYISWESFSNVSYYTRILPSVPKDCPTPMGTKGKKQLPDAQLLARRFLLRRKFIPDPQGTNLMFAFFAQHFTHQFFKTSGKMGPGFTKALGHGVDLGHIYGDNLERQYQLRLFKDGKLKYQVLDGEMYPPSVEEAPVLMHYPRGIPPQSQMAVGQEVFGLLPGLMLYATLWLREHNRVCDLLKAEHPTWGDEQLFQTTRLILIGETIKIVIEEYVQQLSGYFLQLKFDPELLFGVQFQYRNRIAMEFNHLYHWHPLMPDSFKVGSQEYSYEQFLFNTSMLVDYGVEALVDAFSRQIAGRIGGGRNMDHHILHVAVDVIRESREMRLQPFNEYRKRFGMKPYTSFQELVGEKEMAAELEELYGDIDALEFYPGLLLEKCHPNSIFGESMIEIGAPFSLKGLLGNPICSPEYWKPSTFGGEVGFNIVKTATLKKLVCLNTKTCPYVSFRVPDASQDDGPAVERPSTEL

For the compound `CS(=O)(=O)c1ccc(-c2cc3cccccc-3c2-c2ccccc2)cc1` [Compound 1, 2-(4-Methylsulfonylphenyl)-1-phenylazulene], the IC50 at COX-1 was > 10 µM; at COX-2 it was 760 nM.

Take `CS(=O)(=O)c1ccc(-c2cc3cccccc-3c2-c2ccccc2Cl)cc1` [Compound 2, 1-(2-Chlorophenyl)-2-(4-methylsulfonylphenyl)azulene]: the IC50 on COX-1 is > 10 µM; against COX-2 it was 6900 nM.

Regarding `CS(=O)(=O)c1ccc(-c2cc3cccccc-3c2-c2cccc(Cl)c2)cc1` [Compound 3, 1-(3-Chlorophenyl)-2-(4-methylsulfonylphenyl)azulene], the IC50 at COX-1 was > 10 µM; against COX-2, 9.3 nM.

Take `CS(=O)(=O)c1ccc(-c2cc3cccccc-3c2-c2ccc(Cl)cc2)cc1` [Compound 4, 1-(4-Chlorophenyl)-2-(4-methylsulfonylphenyl)azulene]: the IC50 on COX-1 was > 10 µM; against COX-2, 30 nM.

Turning to `CS(=O)(=O)c1ccc(-c2cc3cccccc-3c2-c2cccc(F)c2)cc1` [Compound 5, 1-(3-Fluorophenyl)-2-(4-methylsulfonylphenyl)azulene], the results for the IC50 at COX-1 and on COX-2 were > 10 µM and > 10000 nM, respectively.

Turning to `CS(=O)(=O)c1ccc(-c2cc3cccccc-3c2-c2ccc(F)cc2)cc1` [Compound 6, 1-(4-Fluorophenyl)-2-(4-methylsulfonylphenyl)azulene], the IC50 at COX-1 is > 10 µM; on COX-2 it was 1200 nM.

On to `Cc1cccc(-c2c3cccccc-3cc2-c2ccc(S(C)(=O)=O)cc2)c1` [Compound 7, 1-(3-Methylphenyl)-2-(4-methylsulfonylphenyl)azulene], for which the IC50 at COX-1 was > 10 µM; against COX-2, 48 nM.

As to `Cc1ccc(-c2c3cccccc-3cc2-c2ccc(S(C)(=O)=O)cc2)cc1` [Compound 8, 1-(4-Methylphenyl)-2-(4-methylsulfonylphenyl)azulene], the IC50 against COX-1 was > 10 µM; against COX-2, 7400 nM.

In the case of `COc1cccc(-c2c3cccccc-3cc2-c2ccc(S(C)(=O)=O)cc2)c1` [Compound 9, 1-(3-Methoxyphenyl)-2-(4-methylsulfonylphenyl)azulene], the IC50 against COX-1 is > 10 µM; on COX-2, 4800 nM.

Consider `COc1ccc(-c2c3cccccc-3cc2-c2ccc(S(C)(=O)=O)cc2)cc1` [Compound 10, 1-(4-Methoxyphenyl)-2-(4-methylsulfonylphenyl)azulene], for which the results for the IC50 against COX-1 and against COX-2 were > 10 µM and 3700 nM, respectively.

On to `CS(=O)(=O)c1ccc(-c2cc3cccccc-3c2-c2ccc(F)c(Cl)c2)cc1` [Compound 11, 1-(3-Chloro-4-fluorophenyl)-2-(4-methylsulfonylphenyl)azulene], for which the IC50 was > 10 µM on COX-1 and 83 nM at COX-2.

`Cc1ccc(-c2c3cccccc-3cc2-c2ccc(S(C)(=O)=O)cc2)cc1Cl` [Compound 12, 1-(3-Chloro-4-methylphenyl)-2-(4-methylsulfonylphenyl)azulene]: the IC50 was > 10 µM at COX-1 and 4.9 nM against COX-2.

Turning to `COc1ccc(-c2c3cccccc-3cc2-c2ccc(S(C)(=O)=O)cc2)cc1Cl` [Compound 13, 1-(3-Chloro4-methoxyphenyl)-2-(4-methylsulfonylphenyl)azulene], the IC50 against COX-1 was > 10 µM; at COX-2 it was 19 nM.

Turning to `COc1ccc(-c2c3cccccc-3cc2-c2ccc(S(C)(=O)=O)cc2)cc1F` [Compound 14, 1-(3-Fluoro-4-methoxyphenyl)-2-(4-methylsulfonylphenyl)azulene], the IC50 at COX-1 was > 10 µM; on COX-2, 8.4 nM.

Take `CS(=O)(=O)c1ccc(-c2c(F)c3cccccc-3c2-c2ccccc2)cc1` [Compound 21, 1-Fluoro-2-(4-methylsulfonylphenyl)-3-phenylazulene]: the results for the IC50 against COX-1 and against COX-2 were > 10 µM and 7900 nM, respectively.

As to `NS(=O)(=O)c1ccc(-c2cc3cccccc-3c2-c2ccccc2)cc1` [Compound 27, 4-(1-Phenylazulene-2-yl)phenylsulfonamide], the IC50 is > 10 µM on COX-1 and 8.6 nM against COX-2.

With `NS(=O)(=O)c1ccc(-c2cc3cccccc-3c2-c2cccc(Cl)c2)cc1` [Compound 28, 4-[1-(3-Chlorophenyl)azulene-2-yl]phenylsulfonamide], the IC50 was 7.6 µM at COX-1 and 2600 nM at COX-2.

Turning to `NS(=O)(=O)c1ccc(-c2cc3cccccc-3c2-c2cccc(F)c2)cc1` [Compound 29, 4-[1-(3-Fluorophenyl)azulene-2-yl]phenylsulfonamide], the IC50 at COX-1 turned out to be 4.7 µM; against COX-2 it was 770 nM.

On to `Cc1cccc(-c2c3cccccc-3cc2-c2ccc(S(N)(=O)=O)cc2)c1` [Compound 30, 4-[1-(3-Methylphenyl)azulene-2-yl]phenylsulfonamide], for which the values for the IC50 on COX-1 and against COX-2 were 4.3 µM and 500 nM, respectively.

Turning to `COc1cccc(-c2c3cccccc-3cc2-c2ccc(S(N)(=O)=O)cc2)c1` [Compound 31, 4-[1-(3-Methoxyphenyl)azulene-2-yl]phenylsulfonamide], the IC50 on COX-1 is > 10 µM; at COX-2, 2500 nM.

`NS(=O)(=O)c1ccc(-c2cc3cccccc-3c2-c2ccc(F)c(Cl)c2)cc1` [Compound 32, 4-[1-(3-Chloro-4-fluorophenyl)azulene-2-yl]phenylsulfonamide]: the IC50 against COX-1 is > 10 µM; against COX-2 it was 12 nM.

With `Cc1ccc(-c2c3cccccc-3cc2-c2ccc(S(N)(=O)=O)cc2)cc1Cl` [Compound 33, 4-[1-(3-Chloro4-methylphenyl)azulene-2-yl]phenylsulfonamide], the IC50 worked out at 4.1 µM against COX-1 and 2.6 nM against COX-2.

Take `COc1ccc(-c2c3cccccc-3cc2-c2ccc(S(N)(=O)=O)cc2)cc1Cl` [Compound 34, 4-[1-(3-Chloro4-methoxyphenyl)azulene-2-yl]phenylsulfonamide]: the IC50 against COX-1 amounted to 0.96 µM; on COX-2, 3.4 nM.

For the compound `COc1ccc(-c2c3cccccc-3cc2-c2ccc(S(N)(=O)=O)cc2)cc1F` [Compound 35, 4-[l-(3-Fluoro-4-methoxyphenyl)azulene-2-yl]phenylsulfonamide], the IC50 on COX-1 amounted to 6.7 µM; on COX-2, 22 nM.

For the compound `COc1ccc(-c2c3cccccc-3cc2-c2ccc(S(C)(=O)=O)cc2)cc1OC` [Compound 38, 1-(3,4-Dimethoxyphenyl)-2-(4-methylsulfonylphenyl)azulene], the IC50 is > 10 µM at COX-1 and 64 nM on COX-2.

As to `COc1ccc(-c2c3cccccc-3cc2-c2ccc(S(N)(=O)=O)cc2)cc1OC` [Compound 39, 4-[1-(3,4-Dimethoxyphenyl)azulene-2-yl]phenylsulfonamide], the IC50 was > 10 µM at COX-1 and 290 nM against COX-2.
